# Experimental data taken from PMC13308190, “Endothelial progenitor cell susceptibility to DNA damaging and DDR-modulating compounds determines endothelial differentiation accuracy” (Stem Cell Research & Therapy, 2026).
# Tests used:
# Assay type in all cases: cell-based, mouse
# EC d4 [1] = experiment: ZO1 tight junction immunofluorescence; conditions: EC d4 treated 48 h
# mESC [2] = experiment: Western blot protein expression (densitometry); conditions: mESC 24 h
# Method: (§1) Total protein cell extracts were obtained upon sonication in RIPA buffer (EpiShearTM Probe sonicator, Active Motif [La Hulpe, Belgium]). Protein concentrations were determined using the DC Protein Assay (BioRad [Munich, Germany]). Extracts were supplemented with Roti®-Load buffer (Carl Roth GmbH [Karlsruhe, Germany]) followed by heating (95 °C for 5 min). 20 µg of protein was separated by SDS-PAGE and transferred onto nitrocellulose membrane. After blocking (5% non-fat milk in TBS/0.1% Tween 20 or 5% BSA in TBS/0.1% Tween 20) (1 h, RT) membrane was incubated with primary antibodies (1:500–5000; overnight, 4 °C). After washing with TBS/0.1% Tween 20, peroxidase-conjugated secondary antibody (1:2000) was added (2 h, RT) and bands were visualized using ChemiDoxTM Touch imaging system (BioRad, Munich, Germany).
# [3] = system: EC d6 (endothelial-like cells); experiment: Western blot protein expression (densitometry); conditions: EC d6 24 h; for CHK1 protein / RAD51 protein / gH2AX protein / p-CHK2 protein / p-KAP1 protein / p-RPA32 protein / p-p53 protein: Fig 5D
# Method: as §1
# [4] = system: EC d4 (endothelial progenitor cells); experiment: Western blot protein expression (densitometry); conditions: EC d4 48 h; for CHK1 protein / RAD51 protein / gH2AX protein / p-CHK2 protein / p-KAP1 protein / p-RPA32 protein / p-p53 protein: Fig 5D
# Method: as §1
# mESC [5] = experiment: AlamarBlue cell viability; conditions: 24–72 h treatment
# Method: (§2) Drug-induced cytotoxicity was monitored by analyzing cell viability using the AlamarBlue assay, which measures the reduction of the non-fluorescent dye resazurin (Sigma [Steinheim, Germany]) to fluorescent resorufin by living (i.e. metabolically active) cells. Fluorescence was measured in quadruplicates (excitation: 535 nm, emission: 590 nm (Tecan infinite 200, Tecan, Männedorf, Switzerland)). Relative cell viability of the untreated control was set to 100%.
# [6] = system: EC d4 (endothelial progenitor cells); experiment: AlamarBlue cell viability; conditions: 48 h treatment
# Method: as §2
# EC d4 [7] = experiment: EdU incorporation (S-phase activity); conditions: EC d4 48 h
# Method: S-phase activity of cells was monitored by measuring EdU incorporation using the EdU-Click 488 assay according to the manufacturer’s protocol. Briefly, cells were pulse-treated with 5-ethynyl-2′-deoxyuridine (EdU) for 3 h. Alexa Fluor 488-conjugated reaction cocktail was added (30 min, RT) and nuclei were counterstained with DAPI. The percentage of EdU-positive area/DAPI-positive area was calculated by fluorescence microscopy (Olympus BX43, 20x objective).
# EC d6 = experiment: Mitochondrial membrane potential (TMRM-MitoTracker Green); conditions: EC d6 treated 24 h
# Method: Mitochondrial membrane potential (ΔΨm) was analyzed by live-cell imaging using TMRM-MitoTracker Green co-staining. Cells were seeded and differentiated on Poly-D-Lysine-fibronectine-coated live-imaging dishes. For staining, cells were incubated with 200nM MitoTracker Green (Invitrogen) and 50 nM TMRM (Invitrogen) in DMEM (30 min, 37 °C, 5% CO2). After washing with PBS, live-cell microscopy was performed using a spinning disc confocal microscope (PerkinElmer) equipped with a 60x oil-immersion objective (N.A = 1.49) and a Hamamatsu C9100 camera (1000 × 1000 pixel) (excitation (MitoTracker Green): 488 nm, excitation (TMRM): 561 nm). The cells were kept at 37 °C in OptiMEM supplemented with 10 mM HEPES during imaging. The images were obtained at emission wavelength of 527 nm (W55) and 615 nm (W70) for 488 nm and 561 nm excitation, respectively.
# [8] = Fig 5D, concentration 1 (Dox 1/B02 1/EST 1)
# [9] = Fig 5D, concentration 2 (Dox 2/B02 2/EST 2)
# [10] = concentration 1 (Dox 1/B02 1/EST 1)
# [11] = concentration 2 (Dox 2/B02 2/EST 2)
smiles,measurement,setting,value
O=c1c2ccccc2nc(/C=C/c2cccnc2)n1Cc1ccccc1 [B02],ZO1 containing tight junctions in EC d6 differentiated from treated EC d4,EC d4 [1],did not affect
same,H3ac protein,mESC [2]; Fig 1D,1.8 Fold of mESC
same,H4ac protein,mESC [2]; Fig 1D,232.9 Fold of mESC
same,aTubac (acetylated α-Tubulin) protein,mESC [2]; Fig 1D,0.5 Fold of mESC
same,CHK1 protein,"mESC [2]; Fig 4H, Eto, Dox 1, B02, EST",1.4 Fold of mESC
same,p-ATR protein,"mESC [2]; Fig 4H, Eto, Dox 1, B02, EST",2.7 Fold of mESC
same,p-CHK1 protein,"mESC [2]; Fig 4H, Eto, Dox 1, B02, EST",0.8 Fold of mESC
same,p-RPA32 protein,"mESC [2]; Fig 4H, Eto, Dox 1, B02, EST",2.0 Fold of mESC
same,p-p53 protein,"mESC [2]; Fig 4H, Eto, Dox 1, B02, EST",1.2 Fold of mESC
same,CHK1 protein,mESC [2]; [8],0.8 Fold of mESC
same,RAD51 protein,mESC [2]; [8],1.9 Fold of mESC
same,gH2AX protein,mESC [2]; [8],< 0.1 Fold of mESC
same,p-CHK2 protein,mESC [2]; [8],0.9 Fold of mESC
same,p-KAP1 protein,mESC [2]; [8],1.30 Fold of mESC
same,p-RPA32 protein,mESC [2]; [8],0.8 Fold of mESC
same,p-p53 protein,mESC [2]; [8],0.9 Fold of mESC
same,CHK1 protein,mESC [2]; [9],1.0 Fold of mESC
same,RAD51 protein,mESC [2]; [9],2.3 Fold of mESC
same,gH2AX protein,mESC [2]; [9],0.5 Fold of mESC
same,p-CHK2 protein,mESC [2]; [9],1.1 Fold of mESC
same,p-KAP1 protein,mESC [2]; [9],1.26 Fold of mESC
same,p-RPA32 protein,mESC [2]; [9],1.3 Fold of mESC
same,p-p53 protein,mESC [2]; [9],1.2 Fold of mESC
same,AMPKa protein,mESC [2]; Fig 6E,0.2 Fold of mESC
same,GSK3b protein,mESC [2]; Fig 6E,1.3 Fold of mESC
same,p-p70SK protein,mESC [2]; Fig 6E,1.2 Fold of mESC
same,H3ac protein,[3]; Fig 1D,0.1 Fold of mESC
same,H4ac protein,[3]; Fig 1D,0.0 Fold of mESC
same,aTubac (acetylated α-Tubulin) protein,[3]; Fig 1D,0.3 Fold of mESC
same,CHK1 protein,[3]; [10],0.7 Fold of mESC
same,RAD51 protein,[3]; [10],0.7 Fold of mESC
same,gH2AX protein,[3]; [10],1.2 Fold of mESC
same,p-CHK2 protein,[3]; [10],0.1 Fold of mESC
same,p-KAP1 protein,[3]; [10],0.0 Fold of mESC
same,p-RPA32 protein,[3]; [10],0.1 Fold of mESC
same,p-p53 protein,[3]; [10],0.4 Fold of mESC
same,CHK1 protein,[3]; [11],0.1 Fold of mESC
same,RAD51 protein,[3]; [11],< 0.1 Fold of mESC
same,gH2AX protein,[3]; [11],0.1 Fold of mESC
same,p-CHK2 protein,[3]; [11],0.0 Fold of mESC
same,p-KAP1 protein,[3]; [11],0.0 Fold of mESC
same,p-RPA32 protein,[3]; [11],< 0.1 Fold of mESC
same,p-p53 protein,[3]; [11],0.2 Fold of mESC
same,AMPKa protein,[3]; Fig 6E,0.1 Fold of mESC
same,GSK3b protein,[3]; Fig 6E,1.8 Fold of mESC
same,p-p70SK protein,[3]; Fig 6E,1.1 Fold of mESC
same,H3ac protein,[4]; Fig 1D,0.0 Fold of mESC
same,H4ac protein,[4]; Fig 1D,0.0 Fold of mESC
same,aTubac (acetylated α-Tubulin) protein,[4]; Fig 1D,0.6 Fold of mESC
same,CHK1 protein,[4]; [10],0.4 Fold of mESC
same,RAD51 protein,[4]; [10],0.7 Fold of mESC
same,gH2AX protein,[4]; [10],1.8 Fold of mESC
same,p-CHK2 protein,[4]; [10],0.2 Fold of mESC
same,p-KAP1 protein,[4]; [10],0.0 Fold of mESC
same,p-RPA32 protein,[4]; [10],0.3 Fold of mESC
same,p-p53 protein,[4]; [10],0.6 Fold of mESC
same,CHK1 protein,[4]; [11],0.2 Fold of mESC
same,RAD51 protein,[4]; [11],0.3 Fold of mESC
same,gH2AX protein,[4]; [11],0.0 Fold of mESC
same,p-CHK2 protein,[4]; [11],< 0.1 Fold of mESC
same,p-KAP1 protein,[4]; [11],0.0 Fold of mESC
same,p-RPA32 protein,[4]; [11],0.4 Fold of mESC
same,p-p53 protein,[4]; [11],0.3 Fold of mESC
same,AMPKa protein,[4]; Fig 6E,0.1 Fold of mESC
same,GSK3b protein,[4]; Fig 6E,1.9 Fold of mESC
same,p-p70SK protein,[4]; Fig 6E,1.4 Fold of mESC
same,IC50,mESC [5],~20 µM
same,susceptibility (cell viability) of EC d4 as compared to both mESC and EC d6,[6],not observed
same,S-phase activity (EdU-positive cells),EC d4 [7],decrease in S-phase activity
same,mitochondrial membrane potential,EC d6,significantly reduced
